Reference: patent US6610719B2 (Pfizer Inc., priority 2000, dated 2003)

Columns and labels:
[1] = target: T1, EP4 receptor (Homo sapiens, UniProt P35408); assay: Assay for binding to prostaglandin E2 receptors, 3H-PGE2 displacement (EP4); conditions: displacement of 3H-prostaglandin E2, membranes of transfected 293S cells
T1 construct: These full length receptors are used to prepare 293S cells expressing the EP1, EP2, EP3 and EP4 receptors; expressed in transfected cells; membranes
Protocol: (§1) All operations are performed at 4° C. […] The cells are lysed by sonification with a Branson Sonifier (Model #250, Branson Ultrasonics Corporation, Danbury, Conn.) in 2 fifteen second bursts. Unlysed cells and debris are removed by centrifugation at 100×g for 10 min. Membranes are then harvested by centrifugation at 45,000×g for 30 minutes. Pelleted membranes are resuspended to 3-10 mg of protein per ml of Buffer A, the protein concentration being determined by the method of Bradford [M. Bradford, Anal. Biochem., 72, 248 (1976)]. Resuspended membranes are then stored frozen at −80° C. until use.
(§2) Frozen membranes prepared as above are thawed and diluted to 1 mg protein per ml in Buffer A above. One volume of membrane preparation is combined with 0.05 volume test compound or buffer and one volume of 3 nM ^3H-prostaglandin E2 (#TRK 431, Amersham, Arlington Heights, Ill.) in Buffer A. The mixture (205 μL total volume) is incubated for 1 hour at 25° C. The membranes are then recovered by filtration through type GF/C glass fiber filters (#1205-401, Wallac, Gaithersburg, Md.) using a Tomtec harvester (Model Mach 11/96, Tomtec, Orange, Conn.). […] To determine the amount of ^3H-prostaglandin bound to the membranes, the dried filters are placed into plastic bags with scintillation fluid and counted in a LKB 1205 Betaplate reader (Wallac, Gaithersburg, Md.). […]

[2] = target: T2, EP1 receptor (Homo sapiens, UniProt P34995); assay: Assay for binding to prostaglandin E2 receptors, 3H-PGE2 displacement (EP1); conditions: displacement of 3H-prostaglandin E2, membranes of transfected 293S cells; read-out: IC50 at EP1 receptor subtype
T2 construct: These full length receptors are used to prepare 293S cells expressing the EP1, EP2, EP3 and EP4 receptors; expressed in transfected cells; membranes
T2 sequence (P34995 1-402): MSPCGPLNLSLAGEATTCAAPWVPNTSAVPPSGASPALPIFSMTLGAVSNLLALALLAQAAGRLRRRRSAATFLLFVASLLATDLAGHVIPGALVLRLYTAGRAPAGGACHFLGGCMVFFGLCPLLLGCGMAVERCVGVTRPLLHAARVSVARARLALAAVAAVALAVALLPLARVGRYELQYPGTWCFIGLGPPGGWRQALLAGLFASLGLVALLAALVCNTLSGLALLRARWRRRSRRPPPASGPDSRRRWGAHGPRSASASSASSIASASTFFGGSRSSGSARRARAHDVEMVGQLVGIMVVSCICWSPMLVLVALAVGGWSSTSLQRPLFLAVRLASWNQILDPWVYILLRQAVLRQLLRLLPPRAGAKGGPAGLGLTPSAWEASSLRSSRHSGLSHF
Protocol: as §1, §2

[3] = target: T3, EP2 receptor (Homo sapiens, UniProt P43116); assay: Assay for binding to prostaglandin E2 receptors, 3H-PGE2 displacement (EP2); conditions: displacement of 3H-prostaglandin E2, membranes of transfected 293S cells; read-out: IC50 at EP2 receptor subtype
T3 construct: These full length receptors are used to prepare 293S cells expressing the EP1, EP2, EP3 and EP4 receptors; expressed in transfected cells; membranes
Protocol: as §1, §2

[4] = target: T4, EP3 receptor (Homo sapiens, UniProt P43115); assay: Assay for binding to prostaglandin E2 receptors, 3H-PGE2 displacement (EP3); conditions: displacement of 3H-prostaglandin E2, membranes of transfected 293S cells; read-out: IC50 at EP3 receptor subtype
T4 construct: These full length receptors are used to prepare 293S cells expressing the EP1, EP2, EP3 and EP4 receptors; expressed in transfected cells; membranes
T4 sequence (P43115 1-390): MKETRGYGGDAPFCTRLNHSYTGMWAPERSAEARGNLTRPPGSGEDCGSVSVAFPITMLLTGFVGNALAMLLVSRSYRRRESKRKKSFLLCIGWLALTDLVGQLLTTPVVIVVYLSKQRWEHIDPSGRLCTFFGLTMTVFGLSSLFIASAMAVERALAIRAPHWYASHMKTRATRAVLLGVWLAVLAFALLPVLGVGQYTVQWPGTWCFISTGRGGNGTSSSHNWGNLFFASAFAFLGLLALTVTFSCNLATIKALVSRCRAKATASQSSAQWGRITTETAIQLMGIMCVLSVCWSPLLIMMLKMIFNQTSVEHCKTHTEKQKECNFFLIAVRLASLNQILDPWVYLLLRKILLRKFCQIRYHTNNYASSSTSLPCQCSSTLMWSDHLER
Protocol: as §1, §2

[5] = system: nephrotoxic acute renal failure model; assay: Nephrotoxic acute renal failure model; assay type: in vivo, rat
Protocol: The remnant rat kidney (5/6 nephrectomy) model employed was essentially as previously described in the literature (Vukicevic et al., Journal of Bone and Mineral Research, 2:533-545 (1987)). In brief, male rats (4 months old, weighing approximately 400 g) were anesthesized by intraperitoneal administration of ketamin (20 mg/kg) and then subjected to unilateral nephrectomy (left kidney). All animals were subjected to intraperitoneal administration of 1-3 ml of prewarmed saline to compensate for any fluid loss during the surgery. After one week, ⅔ of the remaining kidney was surgically removed. The rats were allowed to recover for one or two weeks prior to the initiation of the therapy for the prevention of the disease.
Blood samples (0.5 ml) were obtained from the orbital plexus and serum creatinine, BUN (blood urea nitrogen), calcium, phosphate and other blood chemistries were monitored throughout the study. Urine was collected on metabolic cages for 24 h. Creatinine was measured by a Jaffe method. A. W. Whelton, A. J. Watson and R. C. Rock: “Nitrogen Metabolites and Renal Function,” in: Clinical Chemistry (Eds: C. A. Burtis and E. R. Ashwood) W. B. Saunders, Philadelphia, Pa., 1513-1575 (1994). BUN was measured by a glutamate dehydrogenase ultraviolet method, phosphorus by a molybdate method, and calcium by an o-cresolphtaleine method. R. A. Lafayette, R. D. Perrone and A. S. Levey: “Laboratory Evaluation of Renal Function,” in: Diseases of the Kidney (Eds: R. W. Schrier and C. W. Gottschalk), Little, Brown and Company, Inc., Vol. 6, 307-354 (1997). The GFR was calculated using […] (24 hr collection) and adjusted to body weights. The cumulative survival rate was also observed and recorded for both the control and the experimental groups. The kidney was subjected to histomorphometric analysis and scored for tissue pathology.
Two different models of acute renal failure were used: the nephrotoxic acute renal failure model, as described above, and the reperfusion renal injury model, which involved clamping both renal arteries for 60 minutes. […]

[6] = system: reperfusion renal injury model; assay: Reperfusion renal injury model (clamping both renal arteries for 60 minutes); assay type: in vivo, rat; conditions: 24 hours following reperfusion
Protocol: Two different models of acute renal failure were used: the nephrotoxic acute renal failure model, as described above, and the reperfusion renal injury model, which involved clamping both renal arteries for 60 minutes. (K. J. Kelly, W. W. Williams, R. B. Colvin and J. V. Bonventure, “Intercellular Adhesion Molecule 1 Protects the Kidney Against Ischemic Injury,” Proc. Natl. Acad. Sci. USA, 91:812-816 (1994); and S. Vukicevic, V. Basic, D. Rogic, N. Basic, M. S. Shih, A. Shepard, D. Jin, D. Bosukonda, W. Jones, H. Dorai, S. Ryan, D. Griffiths, J. Maliakal, M. Jelic, M. Pastorcic, A. Stavljenic and K. Sampath, “Osteogenic Protein-1 (Bone Morphogenetic Protein-7) Reduces Severity of Injury After Ischemic Acute Renal Failure in Rat,” J. Clin. Invest.,102:202-214 (1998).)
The animals were dosed with the EP4 agonist just prior to the initiation of the nephrotoxic insult.

T3 sequence (P43116 whole entry): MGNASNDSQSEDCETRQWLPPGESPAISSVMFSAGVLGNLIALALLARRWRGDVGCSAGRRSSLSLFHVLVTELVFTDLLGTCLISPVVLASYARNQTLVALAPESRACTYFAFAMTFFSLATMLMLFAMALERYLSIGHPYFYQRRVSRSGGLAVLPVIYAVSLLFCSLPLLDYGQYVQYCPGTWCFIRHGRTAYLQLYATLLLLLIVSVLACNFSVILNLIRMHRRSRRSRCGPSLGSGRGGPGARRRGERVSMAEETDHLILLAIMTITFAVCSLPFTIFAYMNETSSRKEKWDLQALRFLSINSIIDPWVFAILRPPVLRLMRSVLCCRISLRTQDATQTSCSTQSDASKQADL
T1 sequence (P35408 whole entry): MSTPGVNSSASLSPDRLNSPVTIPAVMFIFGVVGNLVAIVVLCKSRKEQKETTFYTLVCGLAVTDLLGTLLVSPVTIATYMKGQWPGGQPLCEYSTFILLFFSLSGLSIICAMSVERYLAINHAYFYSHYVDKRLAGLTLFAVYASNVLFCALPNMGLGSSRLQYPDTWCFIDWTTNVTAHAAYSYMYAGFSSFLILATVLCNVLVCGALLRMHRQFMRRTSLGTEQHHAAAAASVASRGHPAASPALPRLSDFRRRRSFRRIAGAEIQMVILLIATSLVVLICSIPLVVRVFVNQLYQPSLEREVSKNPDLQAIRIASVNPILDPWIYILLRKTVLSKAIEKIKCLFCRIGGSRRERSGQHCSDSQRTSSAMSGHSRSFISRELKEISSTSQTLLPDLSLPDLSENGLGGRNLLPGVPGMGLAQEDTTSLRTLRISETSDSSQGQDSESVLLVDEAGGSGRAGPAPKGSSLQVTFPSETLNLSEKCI

O=C(O)CCCCCCN1C(=O)CCC1CCC(O)Cc1ccccc1 (centres unmarked) [7-(2-(3-hydroxy-4-phenyl-butyl)-5-oxo-pyrrolidin-1-yl)-heptanoic acid]
IC50 [1]: 16 nM | IC50 [2]: > 3.2 µM | IC50 [3]: > 3.2 µM | IC50 [4]: > 3.2 µM | animals survived after seven days ([5]; dose of 10 mg/kg, control group four out of ten): nine out of ten | protection against renal injury, based on serum parameters ([5]; dosed just prior to the nephrotoxic insult): effective in protecting against renal injury | survival time of animals ([5]; doses 1 mg/kg and 10 mg/kg, 10 mg/kg better than 1 mg/kg): increased the survival time of animals in a dose dependent manner | efficacy in reperfusion renal injury [6]: effective 24 hours following reperfusion
